We go through 3 molecules from ChEMBL document CHEMBL3751718, “Synthesis and biological evaluation of lipid-like 5-(2-hydroxyethyl)-4-methyl-1,3-thiazole derivatives as potential anticancer and antimicrobial agents” (Medchemcomm, 2015).

Series [1] concerns HT-1080. The series can be described thus: (§1) Cytotoxicity against human HT1080 cells assessed as cell viability at 6.25 to 50 ug/ml after 72 hrs by MTT assay. Type of series: functional.
In series [2] the test system is Proteus mirabilis. As to the kind of experiment: Antibacterial activity against Proteus mirabilis MSCL 590 at 10 mg/ml after 24 hrs by agar dish diffusion method. Type of series: functional. The following applies: MSCL 590, 24 h, read-out: DIZ.
The test system of series [3] is Escherichia coli. The series can be described thus: Antibacterial activity against Escherichia coli MSCL 332 at 10 mg/ml after 24 hrs by agar dish diffusion method. Type of series: functional. The following applies: MSCL 332, 24 h, read-out: DIZ.
Series [4] concerns Staphylococcus aureus. As to the kind of experiment: Antibacterial activity against Staphylococcus aureus MSCL 334 at 10 mg/ml after 24 hrs by agar dish diffusion method. Type of series: functional.
The test system of series [5] is HT-1080. As to the kind of experiment: Induction of nitric oxide production in human HT1080 cells by Griess assay. Type of series: functional. Set-up: concentration or dose not given beside the values. (Nitrite, measured by Griess reagent, commonly stands in for NO production.)
Series [6] relates to Pseudomonas aeruginosa. The series can be described thus: Antibacterial activity against Pseudomonas aeruginosa MSCL 331 at 10 mg/ml after 24 hrs by agar dish diffusion method. Type of series: functional.
Series [7] has as its system Staphylococcus aureus. As to the kind of experiment: Antibacterial activity against Staphylococcus aureus MSCL 334 at 5 mg/ml after 24 hrs by agar dish diffusion method. Type of series: functional.
In series [8] the test system is Bacillus cereus. As to the kind of experiment: Antibacterial activity against Bacillus cereus MSCL 330 at 10 mg/ml after 24 hrs by agar dish diffusion method. Type of series: functional. Conditions: MSCL 330, 24 h, read-out: DIZ.
Series [9] has as its system Escherichia coli. The series can be described thus: Antibacterial activity against Escherichia coli MSCL 332 at 5 mg/ml after 24 hrs by agar dish diffusion method. Type of series: functional. Conditions: MSCL 332, 24 h, read-out: DIZ.
Series [10] can be described thus: Cytotoxicity against mouse NIH/3T3 cells assessed as cell viability at 6.25 to 50 ug/ml by neutral red-based assay. The following applies: nih3t3.
Series [11] deals with MG-22A. The series can be described thus: Induction of nitric oxide production in mouse MG-22A cells by Griess assay. Type of series: functional. Further details: concentration or dose not given beside the values.
The test system of series [12] is Pseudomonas aeruginosa. The series can be described thus: Antibacterial activity against Pseudomonas aeruginosa MSCL 331 at 5 mg/ml after 24 hrs by agar dish diffusion method. Type of series: functional.
Series [13] has as its system Candida albicans. As to the kind of experiment: Antifungal activity against Candida albicans MSCL 378 at 5 mg/ml after 48 hrs by agar dish diffusion method. Type of series: functional. The following applies: MSCL 378, 48 h, read-out: DIZ.
Series [14] deals with HT-1080. The series can be described thus: (§2) Cytotoxicity against human HT1080 cells assessed as cell viability at 6.25 to 50 ug/ml by crystal violet-based assay. Type of series: functional.
The subject of series [15] is Aspergillus niger. As to the kind of experiment: Antifungal activity against Aspergillus niger MSCL 324 at 5 mg/ml after 48 hrs by agar dish diffusion method. Type of series: functional.
In series [16] the test system is Proteus mirabilis. The series can be described thus: Antibacterial activity against Proteus mirabilis MSCL 590 at 5 mg/ml after 24 hrs by agar dish diffusion method. Conditions: MSCL 590, 24 h, read-out: DIZ. Type of series: functional.
Series [17] relates to MG-22A. As to the kind of experiment: Cytotoxicity against mouse MG-22A cells assessed as cell viability at 6.25 to 50 ug/ml by crystal violet-based assay. Type of series: functional.
For series [18], the system named is Bacillus cereus. The series can be described thus: Antibacterial activity against Bacillus cereus MSCL 330 at 5 mg/ml after 24 hrs by agar dish diffusion method. Type of series: functional. Conditions: MSCL 330, 24 h, read-out: DIZ.
The test system of series [19] is MG-22A. As to the kind of experiment: Cytotoxicity against mouse MG-22A cells assessed as cell viability at 6.25 to 50 ug/ml after 72 hrs by MTT assay. Type of series: functional.
The test system of series [20] is Aspergillus niger. As to the kind of experiment: Antifungal activity against Aspergillus niger MSCL 324 at 10 mg/ml after 48 hrs by agar dish diffusion method. Type of series: functional. The following applies: MSCL 324, 48 h, read-out: DIZ.
Series [21] relates to Candida albicans. The series can be described thus: Antifungal activity against Candida albicans MSCL 378 at 10 mg/ml after 48 hrs by agar dish diffusion method. Type of series: functional. Conditions: MSCL 378, 48 h, read-out: DIZ.
A short description of series [22]: as §1. Conditions: HT-1080, 72 h, read-out: LC50 (the source's name). Type of series: functional.
A short description of series [23]: as §2. Type of series: functional. Conditions: HT-1080, read-out: LC50 (the source's name).
The test system of series [24] is CCRF S-180. The series can be described thus: Antitumor activity against mouse S180 cells allografted into ICR mouse assessed as tumor growth inhibition at 2.5 mg/kg, sc administered on day 1,2,3 and 7 after 24 hrs tumor transplantation measured on day 9. Type of series: functional. The following applies: CCRF S-180, sc, read-out: TGI.
The subject of series [25] is CCRF S-180. The series can be described thus: Antitumor activity against mouse S180 cells allografted into ICR mouse assessed as tumor growth inhibition at 1.5 mg/kg, sc administered on day 1,2,3 and 7 after 24 hrs tumor transplantation measured on day 9. Type of series: functional, organism-based.
For series [26], the system named is Escherichia coli. As to the kind of experiment: Antibacterial activity against Escherichia coli MSCL 332 at 2 mg/ml after 24 hrs by agar dish diffusion method. Type of series: functional, organism-based.
Series [27] has as its system Candida albicans. As to the kind of experiment: Antifungal activity against Candida albicans MSCL 378 at 2 mg/ml after 48 hrs by agar dish diffusion method. Type of series: functional. The following applies: MSCL 378, 48 h, read-out: DIZ.
The test system of series [28] is Candida albicans. The series can be described thus: Antifungal activity against Candida albicans MSCL 378 after 24 hrs by broth dilution method. Type of series: functional. The following applies: MSCL 378, 24 h. (In general: Dilution methods test growth across graded concentrations, often in twofold steps.)
In series [29] the test system is Staphylococcus aureus. As to the kind of experiment: Antibacterial activity against Staphylococcus aureus MSCL 334 at 4 mg/ml after 24 hrs by agar dish diffusion method. Type of series: functional, organism-based.
The subject of series [30] is Aspergillus niger. The series can be described thus: Antifungal activity against Aspergillus niger MSCL 324 at 2 mg/ml after 48 hrs by agar dish diffusion method. Conditions: MSCL 324, 48 h, read-out: DIZ. Type of series: functional.
Series [31] concerns Candida albicans. The series can be described thus: Fungicidal activity against Candida albicans MSCL 378 incubated for 24 hrs followed by colony transfer to agar plates for 24 hrs by colony counting based assay. Conditions: MSCL 378, 24 h, read-out: MFC99.9. Type of series: functional.
Series [32] concerns Aspergillus niger. The series can be described thus: Antifungal activity against Aspergillus niger MSCL 324 at 4 mg/ml after 48 hrs by agar dish diffusion method. Type of series: functional. The following applies: MSCL 324, 48 h, read-out: DIZ.
The subject of series [33] is Pseudomonas aeruginosa. As to the kind of experiment: Antibacterial activity against Pseudomonas aeruginosa MSCL 331 at 2 mg/ml after 24 hrs by agar dish diffusion method. Type of series: functional, organism-based.
Series [34] deals with Staphylococcus aureus. The series can be described thus: Antibacterial activity against Staphylococcus aureus MSCL 334 at 2 mg/ml after 24 hrs by agar dish diffusion method. Type of series: functional, organism-based.
Series [35] concerns Aspergillus niger. The series can be described thus: Antifungal activity against Aspergillus niger MSCL 324 after 24 hrs by broth dilution method. Conditions: MSCL 324, 24 h. Type of series: functional.
For series [36], the system named is Escherichia coli. As to the kind of experiment: Antibacterial activity against Escherichia coli MSCL 332 at 4 mg/ml after 24 hrs by agar dish diffusion method. Type of series: functional, organism-based.
Series [37] relates to Proteus mirabilis. The series can be described thus: Antibacterial activity against Proteus mirabilis MSCL 590 at 2 mg/ml after 24 hrs by agar dish diffusion method. Type of series: functional, organism-based.
Series [38] relates to Proteus mirabilis. The series can be described thus: Antibacterial activity against Proteus mirabilis MSCL 590 at 4 mg/ml after 24 hrs by agar dish diffusion method. Type of series: functional, organism-based.
Series [39] deals with Bacillus cereus. As to the kind of experiment: Antibacterial activity against Bacillus cereus MSCL 330 at 4 mg/ml after 24 hrs by agar dish diffusion method. Type of series: functional, organism-based.
Series [40] relates to Aspergillus niger. The series can be described thus: Fungicidal activity against Aspergillus niger MSCL 324 incubated for 24 hrs followed by colony transfer to agar plates for 24 hrs by colony counting based assay. Type of series: functional. The following applies: MSCL 324, 24 h, read-out: MFC99.9.
For series [41], the system named is Bacillus cereus. The series can be described thus: Antibacterial activity against Bacillus cereus MSCL 330 at 2 mg/ml after 24 hrs by agar dish diffusion method. Type of series: functional, organism-based.
The test system of series [42] is Pseudomonas aeruginosa. The series can be described thus: Antibacterial activity against Pseudomonas aeruginosa MSCL 331 at 4 mg/ml after 24 hrs by agar dish diffusion method. Type of series: functional, organism-based.
The mark [43] stands for this setting: read-out: LC50 (the source's name).

Values after ≈ are worked out from the molar mass of the structure shown. Active and inactive are the calls of the source. The rule behind the calls is not given here.

With `Cc1c(CCO)sc[n+]1C.[I-]`, the LC50 result with HT-1080 [1], with HT-1080 [14], with MG-22A [17] and with MG-22A [19] was “inactive” in each case. Besides, the zone of inhibition at 10000 µg/mL in the series with Proteus mirabilis [2] came to 8 mm; in the series on Escherichia coli [3], 10 mm; in the series with Bacillus cereus [8], 8 mm; in the series with Aspergillus niger [20], 15 mm; with Candida albicans [21], 13 mm. Moreover, the “diameter of the inhibition zone (DIZ)” value in the series on Staphylococcus aureus [4], in the series with Pseudomonas aeruginosa [6], with Staphylococcus aureus [7] and in the series on Pseudomonas aeruginosa [12] was “inactive” throughout. The Activity with HT-1080 [5] turned out to be 2%; with MG-22A [11], 3%. Besides, the zone of inhibition at 5000 µg/mL in the series on Escherichia coli [9] came out at 10 mm; in the series on Candida albicans [13], 13 mm; in the series on Aspergillus niger [15] (MSCL 324, 48 h, read-out: DIZ), 9 mm; in the series with Proteus mirabilis [16], 8 mm; with Bacillus cereus [18], 8 mm. In [10], the LC50 was determined as 643 µg/mL.

Turning to `CCCCCCCCCCCOCCc1sc[n+](C)c1C.[I-]`, the CC50 in series [22] was determined as 1820 nM; in series [23], 1820 nM; in the series with MG-22A [17] (setting [43]), 1360 nM; in the series on MG-22A [19] (setting [43]), 1820 nM. In addition, the zone of inhibition at 10000 µg/mL with Proteus mirabilis [2] stood at 18 mm; in the series on Escherichia coli [3], 27 mm; with Staphylococcus aureus [4] (MSCL 334, 24 h, read-out: DIZ) it was 32 mm; in the series on Pseudomonas aeruginosa [6] (MSCL 331, 24 h, read-out: DIZ) it was 12 mm; with Bacillus cereus [8], 26 mm; in the series with Aspergillus niger [20] it was 17 mm. Also, in the series on Candida albicans [21], the zone of inhibition at 10000 µg/mL stood at 30 mm. The Activity in the series on HT-1080 [5] and with MG-22A [11] was 150% throughout. Also, the zone of inhibition at 5000 µg/mL worked out at 29 mm in the series on Staphylococcus aureus [7] (MSCL 334, 24 h, read-out: DIZ); 25 mm in the series with Escherichia coli [9]; 11 mm in the series with Pseudomonas aeruginosa [12] (MSCL 331, 24 h, read-out: DIZ); 28 mm in the series on Candida albicans [13]; 17 mm in the series on Proteus mirabilis [16]; 25 mm with Bacillus cereus [18]. In series [10], the LC50 amounted to 93300 nM. Further, the inhibition in vivo at 2.5 mg/kg with CCRF S-180 [24] was 56%. Besides, the “diameter of the inhibition zone (DIZ)” value with Aspergillus niger [15] is “inactive”. In the series with CCRF S-180 [25], the inhibition entry is “inactive”.

For the molecule `OC(Cn1cncn1)(Cn1cncn1)c1ccc(F)cc1F` [FLUCONAZOLE], the “diameter of the inhibition zone (DIZ)” value in the series with Escherichia coli [26], in the series with Staphylococcus aureus [29], in the series with Pseudomonas aeruginosa [33], in the series on Staphylococcus aureus [34], in the series on Escherichia coli [36] and in the series with Proteus mirabilis [37] was “inactive” throughout. The “diameter of the inhibition zone (DIZ)” value in the series on Proteus mirabilis [38], in the series with Bacillus cereus [39], in the series with Bacillus cereus [41] and in the series with Pseudomonas aeruginosa [42] was “inactive” in each case. The zone of inhibition at 2000 µg/mL amounted to 10 mm in the series with Candida albicans [27] and 11 mm in the series with Aspergillus niger [30]. In addition, the MIC in the series on Candida albicans [28] was 32 µg/mL (≈ 104 µM); against Aspergillus niger [35] it was 8 µg/mL (≈ 26.1 µM). Also, the MFC in the series with Candida albicans [31] and with Aspergillus niger [40] was more than 256 µg/mL in each case. Besides, the zone of inhibition at 4000 µg/mL with Aspergillus niger [32] was determined as 18 mm.

By LC50 is commonly meant the concentration lethal to half of the exposed cells or organisms. One may read the MIC as the least concentration at which growth counts as inhibited.
